TGI data for 14 molecules are collected here from PubChem BioAssay (NCI).

Assay in all cases: NCI-60 cell line screen, 48 h
Assay [1] deals with SF-268 CNS.
For assay [2], the system named is SF-295 CNS.
Assay [3] concerns OVCAR-8 ovarian.
For assay [4], the system named is CAKI-1 renal.
Assay [5] relates to HOP-92 NSCLC.
Assay [6] relates to MDA-N.
Assay [7] has as its system ACHN renal.
The subject of assay [8] is MDA-MB-231 breast.
Assay [9] concerns HOP-62 NSCLC.
Assay [10] deals with SK-MEL-5 melanoma.

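96-well plates; 48 h exposure; 5 concentrations. Endpoints by linear interpolation between flanking doses. Not reached: highest tested concentration assigned. TGI denotes the concentration required for complete inhibition of growth.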

Consider `OC(CCN1CCN(CCOC(c2ccccc2)c2ccccc2)CC1)c1ccccc1` (centres undefined), for which the TGI was 57 µM in assay [1]; 38.8 µM in assay [2]; 33 µM in assay [3]; over 100 µM in assay [4]; 75.8 µM in assay [5]; 36.8 µM in [6]. Further, the TGI in assay [7] was over 100 µM; in assay [8], 33.6 µM; in assay [9], 44.3 µM; in assay [10] it was 29.6 µM.
Regarding `NC1(c2cc3ccccc3s2)CCCCCC1`, the TGI in assay [2] came out at 32.5 µM; in [3], 35.8 µM; in assay [4], 26.8 µM; in assay [5], 30.5 µM; in assay [6], 30.4 µM; in assay [7], 33.4 µM. Besides, the TGI in assay [8] worked out at 29.1 µM; in assay [9] it was 27.7 µM; in [10], 28.8 µM.
For the molecule `O=C(CSc1nc2ccc(I)cc2c(=O)n1Cc1ccccc1)Nc1ccccc1`, the TGI in [1] was 29.2 µM; in assay [2] it was 66.7 µM; in assay [3], 30 µM; in assay [4] it was over 100 µM; in assay [5], 75 µM; in [6] it was over 100 µM. Besides, the TGI is over 100 µM in assay [7], over 100 µM in assay [8], 26.7 µM in assay [9] and over 100 µM in assay [10].
Consider `COC1(OC)CC(CO)(COc2cc(Cl)nc(N)n2)C1`, for which the TGI in assay [1], in [2], in assay [3], in assay [4], in assay [5] and in [6] was over 100 µM throughout. In addition, the TGI in [7], in assay [8], in assay [9] and in assay [10] was over 100 µM in each case.
Turning to `CCOc1ccccc1N=NC1C(=O)N(C(=O)CC(=O)Nc2ccccc2C)N=C1C` (centres undefined), the TGI in [1] is 63.6 µM; in assay [2] it was 36 µM; in assay [3], over 100 µM; in assay [4], over 100 µM; in [5] it was 40.8 µM; in [6], over 100 µM. The TGI in assay [7] is over 100 µM; in assay [8], over 100 µM; in [9], 41.5 µM; in assay [10], over 100 µM.
Turning to `CC1(C)CC(=O)c2c(N)n[nH]c2C1`, the TGI in [2], in assay [3], in assay [4], in assay [5], in [6] and in [7] was over 100 µM each time. Further, the TGI in [8], in assay [9] and in assay [10] was over 100 µM each time.
For the molecule `CSc1nnnc2ccccc12`, the TGI in assay [1], in [2], in assay [3], in assay [4], in [5] and in [6] was over 100 µM throughout. In addition, the TGI in assay [7], in assay [8], in assay [9] and in assay [10] was over 100 µM in each case.
With `C=C1c2c(n(S(=O)(=O)c3ccccc3)c3ccccc23)[C@@]2(C(=O)OC)CC3C=CC2N1C3`, the TGI in assay [1], in assay [2], in [3], in assay [4], in assay [5] and in assay [6] was over 100 µM each time. Also, the TGI in assay [7], in [8] and in [9] was over 100 µM in each case.
Turning to `Cc1cn(C2CC(O)C(Cn3nncc3Cn3nc(Br)c(=O)[nH]c3=O)O2)c(=O)[nH]c1=O` (centres undefined), the TGI in assay [1], in assay [2], in assay [3], in assay [4], in assay [5] and in assay [6] was over 100 µM in each case. In addition, the TGI in [7], in [8], in [9] and in [10] was over 100 µM each time.
As for `O/N=C1\C/C(=N\O)c2c(Br)sc(Br)c21`, the TGI is 96.5 µM in [1]; over 100 µM in [2]; 40.3 µM in [3]; 60 µM in assay [4]; over 100 µM in assay [5]; over 100 µM in assay [6]. The TGI in [7], in assay [8], in assay [9] and in assay [10] was over 100 µM in each case.
Consider `CCCCCCCCCCCC(=O)N(CCCCCCCCC)CC(O)C(O)C(OC1OC(CO)C(O)C(O)C1O)C(O)CO` (centres undefined), for which the TGI in assay [1] is 39.3 µM; in assay [2], 40 µM; in [3], 39.3 µM; in assay [4], 35.5 µM; in assay [5], 34.4 µM; in assay [6], 38.4 µM. Moreover, the TGI in assay [7] worked out at 32.1 µM; in assay [8] it was 43.2 µM; in assay [9] it was 38.9 µM; in [10], 35 µM.
For `O=C1CCCC1CC(CN1CCOCC1)Sc1nnnn1-c1ccccc1` (centres undefined), the TGI in [2] was over 100 µM; in assay [3], over 100 µM; in assay [4] it was 79.1 µM; in assay [5], over 100 µM; in assay [6] it was over 100 µM; in assay [7], over 100 µM. For the same molecule, the TGI in [8], in assay [9] and in assay [10] was over 100 µM throughout.
Take `CCN(CC)/N=C\c1c2ccccc2cc2ccccc12`: the TGI is over 100 µM in [1]; over 100 µM in [2]; over 100 µM in assay [3]; over 100 µM in assay [4]; 61.1 µM in [5]; over 100 µM in assay [6]. For the same molecule, the values for the TGI in [7], in assay [8] and in [10] were over 100 µM, over 100 µM and 40.2 µM, respectively.
Take `Cc1ccc(/C=c2\c(=O)[nH]c3nc4ccccc4c(=O)n23)cc1`: the TGI in [1] is over 100 µM; in assay [2], over 100 µM; in [3] it was over 100 µM; in assay [4], over 100 µM; in [5] it was over 100 µM; in assay [6] it was 62.2 µM. Besides, the TGI in assay [7], in assay [8] and in assay [9] was over 100 µM each time.
